Values after ≈ are worked out from the molar mass of the structure shown. Read-outs that look alike come from different tables or passages of the source.
What was measured:
Type in all cases: cell-based
[1] = test system: Faecalibacterium prausnitzii A2-165; assay: MIC by broth microdilution (CLSI), type strain; conditions: for susceptibility category (S/I/R) by MIC breakpoints: strain A2-165; for MIC: test strain A2-165
[2] = test system: Faecalibacterium prausnitzii EB-FPDK3; assay: MIC by broth microdilution (CLSI); conditions: for susceptibility category (S/I/R) by MIC breakpoints: strain EB-FPDK3; for MIC: test strain EB-FPDK3
[3] = test system: Faecalibacterium prausnitzii EB-FPDK9; assay: MIC by broth microdilution (CLSI); conditions: for susceptibility category (S/I/R) by MIC breakpoints: strain EB-FPDK9; for MIC: test strain EB-FPDK9
[4] = test system: Faecalibacterium prausnitzii EB-FPDK11; assay: MIC by broth microdilution (CLSI); conditions: for susceptibility category (S/I/R) by MIC breakpoints: strain EB-FPDK11; for MIC: test strain EB-FPDK11
[5] = test system: Faecalibacterium prausnitzii EB-FPYYK1; assay: MIC by broth microdilution (CLSI); conditions: for susceptibility category (S/I/R) by MIC breakpoints: strain EB-FPYYK1; for MIC: test strain EB-FPYYK1
[6] = test system: Bacteroides thetiotaomicron ATCC 29741; assay: MIC by broth microdilution (CLSI), QC strain
[7] = test system: Faecalibacterium prausnitzii strains of the present invention; assay: Antimicrobial susceptibility, summary for all strains; conditions: all Faecalibacterium prausnitzii strains of Table 5
[8] = Faecalibacterium prausnitzii, A2165, read-out: MIC
[9] = Faecalibacterium prausnitzii, EBFPDK3, read-out: MIC
[10] = Faecalibacterium prausnitzii, EBFPDK9, read-out: MIC
[11] = Faecalibacterium prausnitzii, EBFPDK11, read-out: MIC
[12] = Faecalibacterium prausnitzii, EBFPYYK1, read-out: MIC

CCC[C@@H]1C[C@@H](C(=O)N[C@@H]([C@H]2O[C@H](SC)[C@H](O)[C@@H](O)[C@H]2O)[C@H](C)Cl)N(C)C1 [CLI, clindamycin]
susceptibility category (S/I/R) by MIC breakpoints ([1]; CLI breakpoints): (S) (≤2)
MIC [1, 8]: ≤ 0.125 µg/mL
susceptibility category (S/I/R) by MIC breakpoints ([2]; CLI breakpoints): (S) (≤2)
MIC [2, 9]: ≤ 0.125 µg/mL
susceptibility category (S/I/R) by MIC breakpoints ([3]; CLI breakpoints): (S) (≤2)
MIC [3, 10]: ≤ 0.125 µg/mL
susceptibility category (S/I/R) by MIC breakpoints ([4]; CLI breakpoints): (S) (≤2)
MIC [4, 11]: ≤ 0.125 µg/mL
susceptibility category (S/I/R) by MIC breakpoints ([5]; CLI breakpoints): (S) (≤2)
MIC [5, 12]: ≤ 0.125 µg/mL

O=C(N[C@H](CO)[C@H](O)c1ccc([N+](=O)[O-])cc1)C(Cl)Cl [CHL, chloramphenicol]
MIC ([6]; Bacteroides, ATCC29741): 8 µg/mL (≈ 24.8 µM)
susceptibility category (S/I/R) by MIC breakpoints ([1]; CHL breakpoints): (R) (≥32)
MIC [1, 8]: 64 µg/mL (≈ 198 µM)
susceptibility category (S/I/R) by MIC breakpoints ([2]; CHL breakpoints): (S) (≤8)
MIC [2, 9]: 8 µg/mL (≈ 24.8 µM)
susceptibility category (S/I/R) by MIC breakpoints ([3]; CHL breakpoints): (R) (≥32)
MIC [3, 10]: 32 µg/mL (≈ 99 µM)
susceptibility category (S/I/R) by MIC breakpoints ([4]; CHL breakpoints): (S) (≤8)
MIC [4, 11]: 8 µg/mL (≈ 24.8 µM)
susceptibility category (S/I/R) by MIC breakpoints ([5]; CHL breakpoints): (R) (≥32)
MIC [5, 12]: 256 µg/mL (≈ 792 µM)

piperacillin-tazobactam [PTZ]
MIC ([6]; QC ATCC 29741): 8/4
susceptibility category (S/I/R) by MIC breakpoints ([1]; PTZ breakpoints): (R) (≥128/4)
MIC [1]: >256/4
susceptibility category (S/I/R) by MIC breakpoints ([2]; PTZ breakpoints): (S) (≤32/4)
MIC [2]: 32/4
susceptibility category (S/I/R) by MIC breakpoints ([3]; PTZ breakpoints): (S) (≤32/4)
MIC [3]: 32/4
susceptibility category (S/I/R) by MIC breakpoints ([4]; PTZ breakpoints): (R) (≥128/4)
MIC [4]: >256/4
susceptibility category (S/I/R) by MIC breakpoints ([5]; PTZ breakpoints): (R) (≥128/4)
MIC [5]: >256/4

C[C@@H](O)[C@H]1C(=O)N2C(C(=O)O)=C(S[C@@H]3CN[C@H](C(=O)N(C)C)C3)[C@H](C)[C@H]12 [MEM, meropenem]
MIC ([6]; Bacteroides, ATCC29741): 0.5 µg/mL (≈ 1.3 µM)
MIC [1, 8]: > 64 µg/mL
susceptibility category (S/I/R) by MIC breakpoints ([1]; MEM breakpoints): (R) (≥16)
MIC [2, 9]: > 64 µg/mL
susceptibility category (S/I/R) by MIC breakpoints ([2]; MEM breakpoints): (R) (≥16)
MIC [3, 10]: > 64 µg/mL
susceptibility category (S/I/R) by MIC breakpoints ([3]; MEM breakpoints): (R) (≥16)
MIC [4, 11]: > 64 µg/mL
susceptibility category (S/I/R) by MIC breakpoints ([4]; MEM breakpoints): (R) (≥16)
MIC [5, 12]: > 64 µg/mL
susceptibility category (S/I/R) by MIC breakpoints ([5]; MEM breakpoints): (R) (≥16)

COc1c(N2C[C@@H]3CCCN[C@@H]3C2)c(F)cc2c(=O)c(C(=O)O)cn(C3CC3)c12 [MXF, moxifloxacin]
MIC ([6]; Bacteroides, ATCC29741): 8 µg/mL (≈ 19.9 µM)
MIC [1, 8]: 16 µg/mL (≈ 39.9 µM)
susceptibility category (S/I/R) by MIC breakpoints ([1]; MXF breakpoints): (R) (≥8)
MIC [2, 9]: > 32 µg/mL
susceptibility category (S/I/R) by MIC breakpoints ([2]; MXF breakpoints): (R) (≥8)
MIC [3, 10]: 32 µg/mL (≈ 79.7 µM)
susceptibility category (S/I/R) by MIC breakpoints ([3]; MXF breakpoints): (R) (≥8)
MIC [4, 11]: 32 µg/mL (≈ 79.7 µM)
susceptibility category (S/I/R) by MIC breakpoints ([4]; MXF breakpoints): (R) (≥8)
MIC [5, 12]: > 32 µg/mL
susceptibility category (S/I/R) by MIC breakpoints ([5]; MXF breakpoints): (R) (≥8)

Cc1ncc([N+](=O)[O-])n1CCO [MTZ, metronidazole]
MIC ([6]; Bacteroides, ATCC29741): 2 µg/mL (≈ 11.7 µM)
MIC [1, 8]: 4 µg/mL (≈ 23.4 µM)
susceptibility category (S/I/R) by MIC breakpoints ([1]; MTZ breakpoints): (S) (≤8)
MIC [2, 9]: 1 µg/mL (≈ 5.84 µM)
susceptibility category (S/I/R) by MIC breakpoints ([2]; MTZ breakpoints): (S) (≤8)
MIC [3, 10]: < 0.25 µg/mL
susceptibility category (S/I/R) by MIC breakpoints ([3]; MTZ breakpoints): (S) (≤8)
MIC [4, 11]: 0.5 µg/mL (≈ 2.92 µM)
susceptibility category (S/I/R) by MIC breakpoints ([4]; MTZ breakpoints): (S) (≤8)
MIC [5, 12]: 2 µg/mL (≈ 11.7 µM)
susceptibility category (S/I/R) by MIC breakpoints ([5]; MTZ breakpoints): (S) (≤8)
susceptibility or resistance of all the strains to the antibiotic [7]: susceptibility

CO/N=C(\C(=O)N[C@@H]1C(=O)N2C(C(=O)O)=CCS[C@H]12)c1csc(N)n1 [CTZ, ceftizoxime]
MIC ([6]; Bacteroides, ATCC29741): 16 µg/mL (≈ 41.7 µM)
susceptibility category (S/I/R) by MIC breakpoints ([1]; CTZ breakpoints): (I) (64)
MIC [1, 8]: 64 µg/mL (≈ 167 µM)
susceptibility category (S/I/R) by MIC breakpoints ([2]; CTZ breakpoints): (S) (≤32)
MIC [2, 9]: 16 µg/mL (≈ 41.7 µM)
susceptibility category (S/I/R) by MIC breakpoints ([3]; CTZ breakpoints): (R) (≥128)
MIC [3, 10]: 128 µg/mL (≈ 334 µM)
susceptibility category (S/I/R) by MIC breakpoints ([4]; CTZ breakpoints): (R) (≥128)
MIC [4, 11]: 128 µg/mL (≈ 334 µM)
susceptibility category (S/I/R) by MIC breakpoints ([5]; CTZ breakpoints): (R) (≥128)
MIC [5, 12]: 128 µg/mL (≈ 334 µM)
